Experimental data reported in ChEMBL document CHEMBL5360657, “Discovery of the TLR7/8 Antagonist MHV370 for Treatment of Systemic Autoimmune Diseases” (ACS Med Chem Lett, 2023).
pIC50: −log10 of the molar value.

What was measured:
Toll-like receptor 8 = molecular target: T1, Toll-like receptor 8 (Homo sapiens, UniProt Q9NR97); assay: Antagonist activity at TLR8 in human PBMC cells […] assessed as reduction in IL-6 level measured after 20 hrs by AlphaLISA assay; format: cell-based
T1 sequence (Q9NR97 whole entry): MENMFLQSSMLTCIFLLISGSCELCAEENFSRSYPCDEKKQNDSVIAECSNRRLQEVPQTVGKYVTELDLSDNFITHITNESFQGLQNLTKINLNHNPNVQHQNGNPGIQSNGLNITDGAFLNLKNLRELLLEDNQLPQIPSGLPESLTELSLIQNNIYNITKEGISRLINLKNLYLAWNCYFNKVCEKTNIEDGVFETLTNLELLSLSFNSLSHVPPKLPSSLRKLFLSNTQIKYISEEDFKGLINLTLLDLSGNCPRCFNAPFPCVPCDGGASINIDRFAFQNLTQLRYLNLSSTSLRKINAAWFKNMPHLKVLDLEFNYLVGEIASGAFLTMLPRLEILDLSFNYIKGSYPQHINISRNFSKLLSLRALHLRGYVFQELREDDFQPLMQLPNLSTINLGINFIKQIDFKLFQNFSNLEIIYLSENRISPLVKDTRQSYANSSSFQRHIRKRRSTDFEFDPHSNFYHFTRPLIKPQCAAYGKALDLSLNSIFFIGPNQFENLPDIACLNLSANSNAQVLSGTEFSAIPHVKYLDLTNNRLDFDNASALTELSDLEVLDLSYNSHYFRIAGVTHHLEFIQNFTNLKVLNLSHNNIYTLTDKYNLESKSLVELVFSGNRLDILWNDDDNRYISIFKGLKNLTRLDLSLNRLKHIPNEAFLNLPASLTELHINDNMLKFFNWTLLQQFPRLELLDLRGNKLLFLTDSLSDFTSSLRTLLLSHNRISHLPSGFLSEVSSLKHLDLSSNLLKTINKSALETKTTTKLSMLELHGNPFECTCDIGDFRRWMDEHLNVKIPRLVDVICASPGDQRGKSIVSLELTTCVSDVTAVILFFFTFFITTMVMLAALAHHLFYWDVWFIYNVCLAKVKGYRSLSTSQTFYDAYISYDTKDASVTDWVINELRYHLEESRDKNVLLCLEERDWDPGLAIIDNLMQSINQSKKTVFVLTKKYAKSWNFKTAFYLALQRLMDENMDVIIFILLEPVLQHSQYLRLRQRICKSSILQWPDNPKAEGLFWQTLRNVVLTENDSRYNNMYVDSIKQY

Toll-like receptor 7 = molecular target: T2, Toll-like receptor 7 (Homo sapiens, UniProt Q9NYK1); assay: Antagonist activity at TLR7 in human PBMC cells assessed as reduction in IFN alpha measured after 20 hrs by AlphaLISA assay; format: cell-based
T2 sequence (Q9NYK1 whole entry): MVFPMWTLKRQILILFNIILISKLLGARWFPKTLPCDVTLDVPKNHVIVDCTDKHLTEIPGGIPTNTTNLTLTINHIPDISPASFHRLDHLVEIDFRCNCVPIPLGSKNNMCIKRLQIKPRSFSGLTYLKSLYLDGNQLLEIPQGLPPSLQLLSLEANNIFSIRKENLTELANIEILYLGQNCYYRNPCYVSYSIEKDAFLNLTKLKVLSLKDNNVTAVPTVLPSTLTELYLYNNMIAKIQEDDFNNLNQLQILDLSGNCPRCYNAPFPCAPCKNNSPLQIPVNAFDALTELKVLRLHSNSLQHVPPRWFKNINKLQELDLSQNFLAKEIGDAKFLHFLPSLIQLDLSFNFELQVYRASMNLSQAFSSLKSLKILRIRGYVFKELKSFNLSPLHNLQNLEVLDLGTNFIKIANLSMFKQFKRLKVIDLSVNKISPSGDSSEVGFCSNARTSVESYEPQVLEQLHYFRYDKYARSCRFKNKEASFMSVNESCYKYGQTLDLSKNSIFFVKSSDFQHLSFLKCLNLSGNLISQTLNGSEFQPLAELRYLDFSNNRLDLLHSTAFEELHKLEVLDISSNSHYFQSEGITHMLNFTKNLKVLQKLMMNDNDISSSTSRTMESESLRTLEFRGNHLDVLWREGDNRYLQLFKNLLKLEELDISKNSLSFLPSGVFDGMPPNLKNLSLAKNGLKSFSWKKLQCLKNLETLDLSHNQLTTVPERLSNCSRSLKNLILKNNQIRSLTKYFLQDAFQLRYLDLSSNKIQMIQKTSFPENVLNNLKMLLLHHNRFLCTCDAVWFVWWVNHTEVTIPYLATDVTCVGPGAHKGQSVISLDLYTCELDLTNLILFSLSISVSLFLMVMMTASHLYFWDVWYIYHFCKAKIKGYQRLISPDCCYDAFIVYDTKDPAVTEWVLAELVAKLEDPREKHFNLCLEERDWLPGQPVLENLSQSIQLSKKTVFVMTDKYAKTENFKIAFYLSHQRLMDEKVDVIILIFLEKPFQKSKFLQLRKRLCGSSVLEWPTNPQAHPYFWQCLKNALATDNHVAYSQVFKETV

[1] = Metabolic stability in mouse liver microsomes assessed as intrinsic clearance; format: ADME, Microsome; details: read-out: CLH
[2] = Metabolic stability in human liver microsomes assessed as intrinsic clearance; format: ADME, Microsome; details: read-out: CLH
Cytochrome P450 3A4 [3] = molecular target: T3, Cytochrome P450 3A4 (Homo sapiens, UniProt P08684); assay: Time dependent inhibition of CYP3A4 (unknown origin) assessed as Kobs; format: ADME
Cytochrome P450 3A4 [4] = molecular target: T3, Cytochrome P450 3A4; assay: Inhibition of CYP3A4 (unknown origin); format: ADME
[5] = Metabolic stability in rat liver microsomes assessed as intrinsic clearance; format: ADME, Microsome; details: read-out: CLH
[6] = molecular target: Voltage-gated inwardly rectifying potassium channel KCNH2 (Homo sapiens, UniProt Q12809); assay: Displacement of [3H]-dofetilite from human ERG (unknown origin); format: toxicity
Toll-like receptor 9 = molecular target: T4, Toll-like receptor 9 (Homo sapiens, UniProt Q9NR96); assay: Antagonist activity at TLR9 in human PBMC cells assessed as reduction in IFN alpha measured after 20 hrs by AlphaLISA assay; format: cell-based
T4 sequence (Q9NR96 whole entry): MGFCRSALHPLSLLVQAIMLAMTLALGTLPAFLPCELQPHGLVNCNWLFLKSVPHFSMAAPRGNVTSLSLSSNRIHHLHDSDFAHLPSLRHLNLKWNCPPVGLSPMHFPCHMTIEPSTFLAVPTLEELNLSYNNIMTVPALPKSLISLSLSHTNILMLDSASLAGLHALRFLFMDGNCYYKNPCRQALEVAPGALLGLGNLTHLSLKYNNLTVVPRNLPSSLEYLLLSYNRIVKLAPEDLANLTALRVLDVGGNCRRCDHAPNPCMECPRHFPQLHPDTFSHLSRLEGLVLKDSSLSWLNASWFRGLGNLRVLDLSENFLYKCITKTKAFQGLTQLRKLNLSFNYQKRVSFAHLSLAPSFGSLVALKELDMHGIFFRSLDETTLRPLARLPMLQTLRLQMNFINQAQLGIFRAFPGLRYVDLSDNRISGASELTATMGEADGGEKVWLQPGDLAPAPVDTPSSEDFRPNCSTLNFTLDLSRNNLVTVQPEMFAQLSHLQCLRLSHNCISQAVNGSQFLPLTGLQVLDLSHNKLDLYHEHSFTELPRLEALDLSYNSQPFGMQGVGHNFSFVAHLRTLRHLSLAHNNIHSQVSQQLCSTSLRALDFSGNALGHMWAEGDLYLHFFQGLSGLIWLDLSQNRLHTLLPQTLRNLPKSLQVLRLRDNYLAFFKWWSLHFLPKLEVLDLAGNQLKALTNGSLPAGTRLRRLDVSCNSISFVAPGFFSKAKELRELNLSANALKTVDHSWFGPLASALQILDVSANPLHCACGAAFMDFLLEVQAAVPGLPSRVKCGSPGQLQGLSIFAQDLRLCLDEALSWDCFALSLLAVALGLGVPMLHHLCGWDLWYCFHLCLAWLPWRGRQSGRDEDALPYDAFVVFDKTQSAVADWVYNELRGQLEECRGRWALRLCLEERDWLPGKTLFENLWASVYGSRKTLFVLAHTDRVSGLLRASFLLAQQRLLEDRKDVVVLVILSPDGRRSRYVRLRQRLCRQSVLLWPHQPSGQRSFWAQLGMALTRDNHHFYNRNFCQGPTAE

[7] = Solubility of the compound; format: physicochemical
[8] = Permeability of the compound by PAMPA; format: ADME
[9] = AUC in rat at 1 mg/ml, iv; format: ADME; design: dose 1 mg/ml, route iv; details: in vivo
[10] = Volume of distribution at steady state in mouse at 1 mg/ml, po or iv; format: ADME, organism-based; details: in vivo
[11] = AUC in mouse at 1 mg/ml, po; format: ADME; design: dose 1 mg/ml, route po; details: in vivo
[12] = MRT in rat at 1 mg/ml, po or iv; format: ADME, organism-based; details: in vivo
[13] = Volume of distribution at steady state in rat at 1 mg/ml, po or iv; format: ADME, organism-based; details: in vivo
[14] = Cmax in rat at 1 mg/ml, po; format: ADME; design: dose 1 mg/ml, route po; details: in vivo
[15] = MRT in mouse at 1 mg/ml, po or iv; format: ADME, organism-based; details: in vivo
[16] = Cmax in mouse at 1 mg/ml, po; format: ADME; design: dose 1 mg/ml, route po; details: in vivo
[17] = AUC in rat at 1 mg/ml, po; format: ADME; design: dose 1 mg/ml, route po; details: in vivo
[18] = Oral bioavailability in mouse at 1 mg/ml; format: ADME, organism-based; details: in vivo
[19] = Oral bioavailability in rat at 1 mg/ml; format: ADME, organism-based; details: in vivo
[20] = AUC in mouse at 1 mg/ml, iv; format: ADME; design: dose 1 mg/ml, route iv; details: in vivo

Sequence of Voltage-gated inwardly rectifying potassium channel KCNH2 (Q12809 whole entry): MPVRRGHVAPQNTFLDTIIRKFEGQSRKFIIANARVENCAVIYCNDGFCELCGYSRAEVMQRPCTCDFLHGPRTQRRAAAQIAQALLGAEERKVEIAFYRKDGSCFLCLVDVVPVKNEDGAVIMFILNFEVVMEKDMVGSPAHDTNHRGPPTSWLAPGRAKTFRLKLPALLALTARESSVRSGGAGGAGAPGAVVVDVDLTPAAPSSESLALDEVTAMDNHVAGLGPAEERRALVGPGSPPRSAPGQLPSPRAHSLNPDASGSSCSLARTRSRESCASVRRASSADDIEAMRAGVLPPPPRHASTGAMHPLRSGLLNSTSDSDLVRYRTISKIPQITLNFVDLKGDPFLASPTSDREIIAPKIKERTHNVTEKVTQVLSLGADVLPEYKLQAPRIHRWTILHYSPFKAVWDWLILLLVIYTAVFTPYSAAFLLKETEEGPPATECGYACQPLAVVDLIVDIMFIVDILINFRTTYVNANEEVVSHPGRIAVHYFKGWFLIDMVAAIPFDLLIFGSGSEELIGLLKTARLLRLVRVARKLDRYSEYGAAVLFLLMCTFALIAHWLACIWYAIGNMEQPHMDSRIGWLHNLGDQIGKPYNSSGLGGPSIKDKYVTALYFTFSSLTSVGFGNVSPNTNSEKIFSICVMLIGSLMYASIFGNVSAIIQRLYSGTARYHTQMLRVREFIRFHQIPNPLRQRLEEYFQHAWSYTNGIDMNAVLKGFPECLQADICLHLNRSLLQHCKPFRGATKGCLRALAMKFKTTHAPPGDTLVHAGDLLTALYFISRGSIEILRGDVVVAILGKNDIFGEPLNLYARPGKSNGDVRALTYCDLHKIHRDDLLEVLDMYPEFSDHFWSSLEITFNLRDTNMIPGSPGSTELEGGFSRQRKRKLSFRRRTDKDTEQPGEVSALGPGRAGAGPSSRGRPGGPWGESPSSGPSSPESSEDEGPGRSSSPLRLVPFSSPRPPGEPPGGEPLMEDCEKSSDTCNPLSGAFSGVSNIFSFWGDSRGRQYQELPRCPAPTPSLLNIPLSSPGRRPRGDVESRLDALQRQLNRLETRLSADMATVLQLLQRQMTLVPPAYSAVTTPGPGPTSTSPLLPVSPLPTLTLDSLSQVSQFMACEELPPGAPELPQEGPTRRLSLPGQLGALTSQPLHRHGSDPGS
T3 sequence (P08684 whole entry): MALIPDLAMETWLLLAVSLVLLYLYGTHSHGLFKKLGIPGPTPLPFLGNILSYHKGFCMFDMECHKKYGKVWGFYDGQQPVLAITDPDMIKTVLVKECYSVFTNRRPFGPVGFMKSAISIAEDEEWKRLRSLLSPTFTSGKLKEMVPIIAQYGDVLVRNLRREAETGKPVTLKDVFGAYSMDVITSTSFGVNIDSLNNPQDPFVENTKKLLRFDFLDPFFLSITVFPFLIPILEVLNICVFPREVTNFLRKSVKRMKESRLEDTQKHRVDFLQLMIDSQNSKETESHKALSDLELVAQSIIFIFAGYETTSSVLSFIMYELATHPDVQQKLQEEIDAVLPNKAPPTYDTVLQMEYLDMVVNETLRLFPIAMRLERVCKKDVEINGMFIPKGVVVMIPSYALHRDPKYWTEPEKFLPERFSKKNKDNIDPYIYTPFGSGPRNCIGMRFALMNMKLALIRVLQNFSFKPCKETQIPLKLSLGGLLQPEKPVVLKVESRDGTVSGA

| Compound | pIC50 (Toll-like receptor 8) | pIC50 (Toll-like receptor 7) | microsomal CLint [1] [µL/min/mg] | microsomal CLint [2] [µL/min/mg] | Kobs (Cytochrome P450 3A4 [3]) [min⁻¹] | pIC50 (Cytochrome P450 3A4 [4]) | microsomal CLint [5] [µL/min/mg] | pIC50 [6] | pIC50 (Toll-like receptor 9) | solubility [7] [µM] | log(permeability) [8] | further results |
| --- | --- | --- | --- | --- | --- | --- | --- | --- | --- | --- | --- | --- |
| Cc1cc(N2CCc3c(c(C)nn3CC34CCC(N5C[C@@H](C)O[C@@H](C)C5)(CC3)CC4)C2)c2cnn(C)c2n1 | 7.70 | 8.00 | 440 | 130 | 0.031 | < 4.30 | 55 | < 4.52 | 5.82 | > 175 | -3.9 | – |
| Cc1cc(N2CCc3c(c(C)nn3CC34CCC(N(C)C)(CC3)CC4)C2)c2cnn(C)c2n1 | 6.80 | 8.05 | 33 | 34 | 0.032 | < 4.30 | 36 | < 4.52 | 6.15 | > 175 | -4.6 | – |
| Cc1cc(N2CCc3c(c(C)nn3CC34CCC(NC5COC5)(CC3)CC4)C2)c2cnn(C)c2n1 | 6.74 | 7.52 | 60 | 57 | 0.009 | 4.48 | 67 | < 4.52 | 6.01 | > 175 | -4.5 | – |
| CN[C@@H](C)C(=O)NC12CCC(Cn3nc(C)c4c3CCN(c3cc(C)nc5c3cnn5C)C4)(CC1)CC2 | 6.72 | – | 42 | < 15 | 0.022 | < 4.30 | 34 | < 4.52 | 6.15 | – | -5.3 | AUC [9]: 1.78 µM·h; Vdss [10]: 3.5 L/kg; AUC [11]: 2.34 µM·h; MRT [12]: 1.6 h; Vdss [13]: 2 L/kg; Cmax [14]: 31 nM; MRT [15]: 1.6 h; Cmax [16]: 237 nM; AUC [17]: 0.483 µM·h; bioavailability [18]: 26%; bioavailability [19]: 9%; AUC [20]: 1.79 µM·h |
